Laboratory results: patent US11420970B1 (NOVARTIS AG, priority 2019, dated 2022)
Read-outs that look alike come from different tables or passages of the source.

Key:
NSD2 [1-1365] = NSD2 [1-1365] (Homo sapiens (Human), UniProt O96028); experiment: LC-MS/MS-based NSD2 enzymatic assay (SAH production); format: biochemical; details: read-out: NSD2 IC50
In short: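 Full-length NSD2 [1-1365] (8 nM final) with 1 μM SAM and 400 nM mouse-liver nucleosome in Tris pH 8.0 buffer; inhibitor preincubated 20 min with enzyme/SAM before nucleosome addition. Reaction 90 min at room temperature, TFA-quenched; SAH quantified by LC-MS/MS against d4-SAH internal standard and SAH standard curve.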

[1] = tested on: cellular H3K36me2 level in multiple myeloma cell line KMS11 (t(4;14)+); experiment: H3K36me2 cellular FRET assay in KMS11-Par line; format: cell-based; details: FRET, read-out: H3K36me2 FRET in KMS11-Par
Method: H3K36Me2 Cellular FRET Assay in KMS11-Par Line
Fluorescence Resonance Energy Transfer (FRET) assay was used to test the ability of candidate compound to reduce cellular H3K36me2 level in multiple myeloma cell line KMS11 (t(4;14)+) (Horizon Discovery Ltd.).
Cells were treated with tested compounds at the desired concentration for 48 hours. […] Histone extract was incubated with Eu labeled anti-H3K36me2 antibody (abcam #ab ab9049) and d2 labeled anti-H3 antibody (abcam #ab1791) for 1 hour at room temperature. A Eu labeled anti-H3 antibody (CISBIO #64CUS000) was used for loading control. The abundancy of H3K36me2 or total H3 was measured by fluorescence signal on Perkin Elmer Envison machine.

[2] = NSD2 biochemical activity, class symbols
[3] = Homo sapiens, KMS-11, KMS11-Par line, cellular H3K36me2 level
[4] = Homo sapiens, KMS-11, KMS11-Par line

Chain of NSD2 [1-1365] (O96028 whole entry): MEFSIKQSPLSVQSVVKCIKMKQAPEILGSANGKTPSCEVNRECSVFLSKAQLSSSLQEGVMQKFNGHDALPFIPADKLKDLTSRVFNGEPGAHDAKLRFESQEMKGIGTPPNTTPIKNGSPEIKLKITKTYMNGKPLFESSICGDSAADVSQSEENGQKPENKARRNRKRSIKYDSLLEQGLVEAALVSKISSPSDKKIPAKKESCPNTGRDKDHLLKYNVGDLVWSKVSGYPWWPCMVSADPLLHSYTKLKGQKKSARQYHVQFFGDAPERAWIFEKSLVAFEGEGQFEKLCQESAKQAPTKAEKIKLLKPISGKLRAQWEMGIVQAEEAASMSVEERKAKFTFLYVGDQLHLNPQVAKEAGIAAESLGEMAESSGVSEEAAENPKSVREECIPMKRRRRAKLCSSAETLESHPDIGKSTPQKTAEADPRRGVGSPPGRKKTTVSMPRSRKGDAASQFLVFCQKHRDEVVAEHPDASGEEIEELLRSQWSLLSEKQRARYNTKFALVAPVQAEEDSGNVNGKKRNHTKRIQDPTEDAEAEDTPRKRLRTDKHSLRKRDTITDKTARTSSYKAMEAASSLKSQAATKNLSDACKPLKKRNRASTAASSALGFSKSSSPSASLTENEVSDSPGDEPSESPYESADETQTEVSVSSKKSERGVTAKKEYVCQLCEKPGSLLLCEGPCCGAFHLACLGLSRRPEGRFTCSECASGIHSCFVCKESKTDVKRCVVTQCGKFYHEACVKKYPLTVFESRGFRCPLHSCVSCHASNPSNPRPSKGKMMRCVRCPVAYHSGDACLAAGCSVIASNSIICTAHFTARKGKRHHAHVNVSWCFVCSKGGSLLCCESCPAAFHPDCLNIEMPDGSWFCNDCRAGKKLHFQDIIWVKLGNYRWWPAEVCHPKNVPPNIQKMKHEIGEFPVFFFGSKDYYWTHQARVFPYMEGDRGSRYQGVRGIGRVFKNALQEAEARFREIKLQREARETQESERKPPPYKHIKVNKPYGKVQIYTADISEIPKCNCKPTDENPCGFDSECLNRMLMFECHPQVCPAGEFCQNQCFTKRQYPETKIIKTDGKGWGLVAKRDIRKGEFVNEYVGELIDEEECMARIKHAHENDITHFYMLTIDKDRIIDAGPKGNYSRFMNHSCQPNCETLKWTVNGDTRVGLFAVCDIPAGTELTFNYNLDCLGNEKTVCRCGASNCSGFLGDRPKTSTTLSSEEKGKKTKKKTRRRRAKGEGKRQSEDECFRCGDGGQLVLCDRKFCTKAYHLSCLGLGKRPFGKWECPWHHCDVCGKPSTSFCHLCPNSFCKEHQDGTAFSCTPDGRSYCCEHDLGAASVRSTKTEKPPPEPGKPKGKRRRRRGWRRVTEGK

Row | SMILES | IC50 (NSD2 [1-1365]; [2]) [nM] | IC50 [1, 3] [nM] | IC50 (NSD2 [1-1365]) [nM] | IC50 [1, 4] [nM] | IC50 ([1]; KMS11-Par line, cellular H3K36me2 level) [nM]
1 | Nc1ncnc2c1ncn2Cc1cc(-c2cccc(F)c2)ncc1N1CCC[C@@H](N)C1 [Example 4, (R)-9-((5-(3-aminopiperidin-1-yl)-2-(3-fluorophenyl)pyridin-4-yl)methyl)-9H-purin-6-amine] | 10 to 1000 | 4120 |  |  | 
2 | COC[C@@]1(N)CCCN(c2cnc(-c3cccc(Cl)c3)cc2Cn2cnc3c(N)ncnc32)C1 [Example 27, (R)-9-((5-(3-amino-3-(methoxymethyl)piperidin-1-yl)-2-(3-chlorophenyl)pyridin-4-yl)methyl)-9H-purin-6-amine] | 1 to 10 | 501 |  |  | 
3 | COc1ccc(-c2cc(Cn3cnc4c(N)ncnc43)c(N3CCC[C@](N)(C(=O)N(C)C)C3)cn2)cc1F [Example 80, (R)-3-amino-1-(4-((6-amino-9H-purin-9-yl)methyl)-6-(3-fluoro-4-methoxyphenyl)pyridin-3-yl)-N,N-dimethylpiperidine-3-carboxamide] | 1 to 10 | 4950 |  |  | 
4 | COc1ccc(-c2cc(Cn3cnc4c(N)ncnc43)c(N3CC[C@@H](F)[C@@H](N)C3)cn2)c(F)c1 [Example 10, 9-((5-((3S,4R)-3-amino-4-fluoropiperidin-1-yl)-2-(2-fluoro-4-methoxyphenyl)pyridin-4-yl)methyl)-9H-purin-6-amine] | 10 to 1000 | 7630 |  |  | 
5 | COc1ccc(-c2cc(Cn3cnc4c(N)ncnc43)c(N3CCC[C@@H](N)C3)cn2)cc1 [Example 11, (R)-9-((5-(3-aminopiperidin-1-yl)-2-(4-methoxyphenyl)pyridin-4-yl)methyl)-9H-purin-6-amine] | 10 to 1000 | 11200 |  |  | 
6 | COC[C@@]1(N)CCCN(c2cnc(-c3cccc(F)c3)cc2Cn2cnc3c(N)ncnc32)C1 [Example 24, (R)-9-((5-(3-amino-3-(methoxymethyl)piperidin-1-yl)-2-(3-fluorophenyl)pyridin-4-yl)methyl)-9H-purin-6-amine] | 1 to 10 | 451 |  |  | 
7 | Nc1ncnc2c1ncn2Cc1cc(-c2ccc(F)cc2)ncc1N1CCC[C@](N)(COC(F)F)C1 [Example 44, (R)-9-((5-(3-amino-3-((difluoromethoxy)methyl)piperidin-1-yl)-2-(4-fluorophenyl)pyridin-4-yl)methyl)-9H-purin-6-amine] | 10 to 1000 | 1620 |  |  | 
8 | CN(C)C(=O)C[C@@]1(N)CCCN(c2cnc(-c3ccc(F)c(F)c3)cc2Cn2cnc3c(N)nccc32)C1 [Example 59, (S)-2-(3-amino-1-(4-((4-amino-1H-imidazo[4,5-c]pyridin-1-yl)methyl)-6-(3,4-difluorophenyl)pyridin-3-yl)piperidin-3-yl)-N,N-dimethylacetamide] | 1 to 10 | 33300 |  |  | 
9 | Nc1ncnc2c1ncn2Cc1cc(-c2ccc(F)c(F)c2)ncc1N1CCC[C@](N)(Cc2nccs2)C1 [Example 53, (S)-9-((5-(3-amino-3-(thiazol-2-ylmethyl)piperidin-1-yl)-2-(3,4-difluorophenyl)pyridin-4-yl)methyl)-9H-purin-6-amine] | 1 to 10 | 327 |  |  | 
10 | COc1ccc(-c2cc(Cn3cnc4c(N)nccc43)c(N3CCC[C@@H](N)C3)cn2)cc1F [Example 21, (R)-1-((5-(3-aminopiperidin-1-yl)-2-(3-fluoro-4-methoxyphenyl)pyridin-4-yl)methyl)-1H-imidazo[4,5-c]pyridin-4-amine] | 10 to 1000 | 20800 |  |  | 
11 | CNC(=O)CC1(N)CCCN(c2cnc(-c3cccc(F)c3)cc2Cn2cnc3c(N)ncnc32)C1 (stereo not drawn) [Example 66, 2-(3-amino-1-(4-((6-amino-9H-purin-9-yl)methyl)-6-(3-fluorophenyl)pyridin-3-yl)piperidin-3-yl)-N-methylacetamide] | 10 to 1000 | 118000 |  |  | 
12 | COc1ccc(-c2cc(Cn3cnc4c(N)ncnc43)c(N3CCC[C@](N)(C(=O)OC(C)C)C3)cn2)cc1F [Example 81, isopropyl (R)-3-amino-1-(4-((6-amino-9H-purin-9-yl)methyl)-6-(3-fluoro-4-methoxyphenyl)pyridin-3-yl)piperidine-3-carboxylate] | 1 to 10 | 115 |  |  | 
13 | COc1ccc(-c2cc(Cn3cnc4c(N)ncnc43)c(N3CCC[C@@H](N)C3)cn2)c(F)c1 [Example 6, (R)-9-((5-(3-aminopiperidin-1-yl)-2-(2-fluoro-4-methoxyphenyl)pyridin-4-yl)methyl)-9H-purin-6-amine] | 10 to 1000 | 10000 |  |  | 
14 | Nc1ncnc2c1ncn2Cc1cc(-c2cccc(F)c2)ncc1N1CCC[C@](N)(COC2CCC2)C1 [Example 35, (R)-9-((5-(3-amino-3-(cyclobutoxymethyl)piperidin-1-yl)-2-(3-fluorophenyl)pyridin-4-yl)methyl)-9H-purin-6-amine] | 1 to 10 | 610 |  |  | 
15 | Nc1ncnc2c1ncn2Cc1cc(-c2cccc(F)c2)ncc1N1CC[C@@H](F)[C@@H](N)C1 [Example 8, 9-((5-((3S,4R)-3-amino-4-fluoropiperidin-1-yl)-2-(3-fluorophenyl)pyridin-4-yl)methyl)-9H-purin-6-amine] | 10 to 1000 | 5260 |  |  | 
16 | CC(C)OC[C@@]1(N)CCCN(c2cnc(-c3ccc(F)c(F)c3)cc2Cn2cnc3c(N)ncnc32)C1 [Example 34, (R)-9-((5-(3-amino-3-(isopropoxymethyl)piperidin-1-yl)-2-(3,4-difluorophenyl)pyridin-4-yl)methyl)-9H-purin-6-amine] | 1 to 10 | 1030 |  |  | 
17 | Nc1ncnc2c1ncn2Cc1cc(-c2ccc(F)cc2)ncc1N1CCC[C@](N)(COCC(F)(F)F)C1 [Example 45, (R)-9-((5-(3-amino-3-((2,2,2-trifluoroethoxy)methyl)piperidin-1-yl)-2-(4-fluorophenyl)pyridin-4-yl)methyl)-9H-purin-6-amine] | 10 to 1000 | 705 |  |  | 
18 | COC[C@@]1(N)CCCN(c2cnc(-c3ccc(F)c(F)c3)cc2Cn2cnc3c(N)ncnc32)C1 [Example 23, (R)-9-((5-(3-amino-3-(methoxymethyl)piperidin-1-yl)-2-(3,4-difluorophenyl)pyridin-4-yl)methyl)-9H-purin-6-amine] | 1 to 10 | 160 |  |  | 
19 | COc1ccc(-c2cc(Cn3cnc4c(N)ncnc43)c(N3CCC[C@@](C)(N)C3)cn2)cc1F [Example 20, (R)-9-((5-(3-amino-3-methylpiperidin-1-yl)-2-(3-fluoro-4-methoxyphenyl)pyridin-4-yl)methyl)-9H-purin-6-amine] | 10 to 1000 | 2950 |  |  | 
20 | CN(C)C(=O)C[C@@]1(N)CCCN(c2cnc(-c3cccc(F)c3)cc2Cn2cnc3c(N)ncnc32)C1 [Example 70, (S)-2-(3-amino-1-(4-((6-amino-9H-purin-9-yl)methyl)-6-(3-fluorophenyl)pyridin-3-yl)piperidin-3-yl)-N,N-dimethylacetamide] | 10 to 1000 | 9440 |  |  | 
21 | COc1ccc(-c2cc(Cn3cnc4c(N)ncnc43)c(N3CCC[C@](N)(C(=O)OC(C)(C)C)C3)cn2)cc1F [Example 83, tert-butyl (R)-3-amino-1-(4-((6-amino-9H-purin-9-yl)methyl)-6-(3-fluoro-4-methoxyphenyl)pyridin-3-yl)piperidine-3-carboxylate] | 10 to 1000 | 956 |  |  | 
22 | CSCC1(N)CCCN(c2cnc(-c3ccc(F)c(F)c3)cc2Cn2cnc3c(N)ncnc32)C1 (stereo not drawn) [Example 297, 9-((5-(3-amino-3-((methylthio)methyl)piperidin-1-yl)-2-(3,4-difluorophenyl)pyridin-4-yl)methyl)-9H-purin-6-amine] |  |  | 10 to 1000 | 2350 | 
23 | Nc1ncnc2c1ncn2Cc1cc(-c2ccc(F)c(F)c2)ncc1N1CCC[C@](N)(COC2CC2)C1 [Example 22, (R)-9-((5-(3-amino-3-(cyclopropoxymethyl)piperidin-1-yl)-2-(3,4-difluorophenyl)pyridin-4-yl)methyl)-9H-purin-6-amine] | 1 to 10 | 214 |  |  | 
24 | COC[C@@]1(N)CCCN(c2cnc(-c3ccc(F)cc3F)cc2Cn2cnc3c(N)ncnc32)C1 [Example 29, (R)-9-((5-(3-amino-3-(methoxymethyl)piperidin-1-yl)-2-(2,4-difluorophenyl)pyridin-4-yl)methyl)-9H-purin-6-amine] | 1 to 10 | 225 |  |  | 
25 | COC[C@@]1(N)CCCN(c2cnc(-c3ccc(OC)c(F)c3)cc2Cn2cnc3c(N)ncnc32)C1 [Example 38, (R)-9-((5-(3-amino-3-(methoxymethyl)piperidin-1-yl)-2-(3-fluoro-4-methoxyphenyl)pyridin-4-yl)methyl)-9H-purin-6-amine] | 10 to 1000 |  |  |  | 721
26 | COc1ccc(-c2cc(Cn3cnc4c(N)ncnc43)c(N3CCC[C@](N)(CC(F)(F)F)C3)cn2)cc1F [Example 303, (S)-9-((5-(3-amino-3-(2,2,2-trifluoroethyl)piperidin-1-yl)-2-(3-fluoro-4-methoxyphenyl)pyridin-4-yl)methyl)-9H-purin-6-amine] |  |  | 10 to 1000 | 5370 | 
27 | COc1ccc(-c2cc(Cn3cnc4c(N)ncnc43)c(N3CCC(OC)C(N)C3)cn2)cc1F (stereo not drawn) [Example 15, 9-((5-(3-amino-4-methoxypiperidin-1-yl)-2-(3-fluoro-4-methoxyphenyl)pyridin-4-yl)methyl)-9H-purin-6-amine] | 10 to 1000 | 18700 |  |  | 
